Measured values reported in patent US9649333B2, “Oxygenation procedures for newborns and devices for use therein” (UTI Limited Partnership, priority 2008, dated 2017).
Read-outs that look alike come from different tables or passages of the source.

Tested on: preterm infants
Conditions: for time immediately after birth to reach the target range: FIG. 3
Source text: Blinded, randomized control trial of delivery room resuscitation in infants 32 weeks gestation comparing three O2 strategies. The High O2 Burden (HOB) group received a static concentration of 100% O2. In the Moderate O2 Burden (MOB) and Low O2 Burden (LOB) groups, resuscitation started with 100% and 21% O2, respectively. The inspired oxygen concentration was adjusted by 20% every 15 seconds in the MOB and LOB groups until the target SpO2 range of 85% to 92% was reached. SpO2 measurements were recorded every 2 seconds from the right wrist (pre-ductal) and the maximum sensitivity setting of the pulse oximetry was used. An anesthesia monitor continuously measured and recorded respiratory parameters including the peak inspiratory pressure, respiratory rate, end-tidal CO2 and inspired O2 concentration.
There were three sets of preterm infants that were part of this study. The LOB (low oxygen burden group—resuscitation began with room air given followed by a 20% increase every 15 sec as long as the oxygen saturation was less than 85%), MOB ([…] began with 100% oxygen given and decreased 20% every 15 sec as long as the oxygen saturation was greater than 92%) and HOB (high oxygen burden group—100% oxygen given continuously). The inventors enrolled 106 preterm infants (≦32 weeks gestation) (LOB=34, MOB=[…]).

[1] = HOB group: static 100% O2, target SpO2 85-92%
[2] = LOB group: start 21% O2, titrated
[3] = LOB group: start 21% O2, titrated, target SpO2 85-92%
[4] = MOB group: start 100% O2, titrated
[5] = MOB group: start 100% O2, titrated, target SpO2 85-92%

O=O [oxygen]
Mean duration of resuscitation (HOB group: static 100% O2): 590.62 s | mean proportion of resuscitation time spent in the target SpO2 range (85-92%) (HOB group: static 100% O2): 11% | Mean proportion of time above target [1]: 0.49 | Mean proportion of time below target [1]: 0.40 | proportion of time above range [1]: 49% | time immediately after birth to reach the target range (HOB group, target SpO2 85-92%): approximately 5 minutes | Mean proportion of time in target (High O2 Burden (HOB) group: static 100% O2, target SpO2 85-92%): 0.11 | Mean duration of resuscitation [2]: 677.00 s | mean proportion of resuscitation time spent in the target SpO2 range (85-92%) [2]: 16% | Mean proportion of time above target [3]: 0.23 | Mean proportion of time below target [3]: 0.61 | proportion of time below range [3]: 61% | Mean proportion of time in target (Low O2 Burden (LOB) group: start 21% O2, adjusted by 20% every 15 seconds, target SpO2 85-92%): 0.16 | more time in target range than the LOB group (MOB group versus LOB group, target SpO2 85-92%): approximately 25% | Mean duration of resuscitation [4]: 665.00 s | mean proportion of resuscitation time spent in the target SpO2 range (85-92%) [4]: 21% | Mean proportion of time above target [5]: 0.28 | Mean proportion of time below target [5]: 0.51 | time immediately after birth to reach the target range (MOB group, target SpO2 85-92%): approximately 5 minutes | Mean proportion of time in target (Moderate O2 Burden (MOB) group: start 100% O2, adjusted by 20% every 15 seconds, target SpO2 85-92%): 0.21
